Assay results reported in ChEMBL document CHEMBL5303573, “Mapping human microbiome drug metabolism by gut bacteria and their genes” (Nature, 2019).

Legend:
[1] = The drug is tested on Bifidobacterium breve strain: DSM20213 for biotransformation. The drug concentrations were measured before and after a 12-h incubation by liquid-chromatography-coupled mass spectrometry (LC–MS); details: 2 µM
[2] = The drug is tested on Eggerthella lenta strain: ATCC25559 for biotransformation. The drug concentrations were measured before and after a 12-h incubation by liquid-chromatography-coupled mass spectrometry (LC–MS); details: 2 µM
[3] = The drug is tested on Alistipes indistinctus strain: DSM22520 for biotransformation. The drug concentrations were measured before and after a 12-h incubation by liquid-chromatography-coupled mass spectrometry (LC–MS); details: 2 µM
[4] = The drug is tested on Bacteroides cellulosilyticus strain: DSM14838 for biotransformation. The drug concentrations were measured before and after a 12-h incubation by liquid-chromatography-coupled mass spectrometry (LC–MS); details: 2 µM
[5] = The drug is tested on Bacteroides coprophilus strain: DSM18228 for biotransformation. The drug concentrations were measured before and after a 12-h incubation by liquid-chromatography-coupled mass spectrometry (LC–MS); details: 2 µM
[6] = The drug is tested on Bacteroides fragilis strain: HMW615 for biotransformation. The drug concentrations were measured before and after a 12-h incubation by liquid-chromatography-coupled mass spectrometry (LC–MS); details: 2 µM
[7] = The drug is tested on Bacteroides ovatus strain: ATCC8483 for biotransformation. The drug concentrations were measured before and after a 12-h incubation by liquid-chromatography-coupled mass spectrometry (LC–MS); details: 2 µM
[8] = The drug is tested on Bacteroides uniformis strain: ATCC8492 for biotransformation. The drug concentrations were measured before and after a 12-h incubation by liquid-chromatography-coupled mass spectrometry (LC–MS); details: 2 µM
[9] = The drug is tested on Bacteroides vulgatus strain: ATCC8482 for biotransformation. The drug concentrations were measured before and after a 12-h incubation by liquid-chromatography-coupled mass spectrometry (LC–MS); details: phocaeicola vulgatus, 2 µM
[10] = The drug is tested on Bacteroides xylanisolvens strain: DSM18836 for biotransformation. The drug concentrations were measured before and after a 12-h incubation by liquid-chromatography-coupled mass spectrometry (LC–MS); details: 2 µM
[11] = The drug is tested on Clostridium asparagiforme strain: DSM15981 for biotransformation. The drug concentrations were measured before and after a 12-h incubation by liquid-chromatography-coupled mass spectrometry (LC–MS); type: ADME; design: dose 2 uM, timepoint 0 vs 12 hours; details: enterocloster asparagiformis, 2 µM
[12] = The drug is tested on Dorea formicigenerans strain: ATCC27755 for biotransformation. The drug concentrations were measured before and after a 12-h incubation by liquid-chromatography-coupled mass spectrometry (LC–MS); details: 2 µM
[13] = The drug is tested on Eubacterium hallii strain: DSM3353 for biotransformation. The drug concentrations were measured before and after a 12-h incubation by liquid-chromatography-coupled mass spectrometry (LC–MS); details: anaerobutyricum hallii, 2 µM
[14] = The drug is tested on Ruminococcus gnavus strain: ATCC29149 for biotransformation. The drug concentrations were measured before and after a 12-h incubation by liquid-chromatography-coupled mass spectrometry (LC–MS); details: mediterraneibacter gnavus, 2 µM
[15] = The drug is tested on Ruminococcus lactaris strain: ATCC29176 for biotransformation. The drug concentrations were measured before and after a 12-h incubation by liquid-chromatography-coupled mass spectrometry (LC–MS); details: 2 µM
[16] = The drug is tested on Providencia rettgeri strain: DSM1131 for biotransformation. The drug concentrations were measured before and after a 12-h incubation by liquid-chromatography-coupled mass spectrometry (LC–MS); type: ADME; design: dose 2 uM, timepoint 0 vs 12 hours; details: 2 µM
[17] = bifidobacterium adolescentis, 12 h, 2 µM
Description: The drug is tested on Bifidobacterium adolescentis strain: ATCC 15703 for biotransformation. The drug concentrations were measured before and after a 12-h incubation by liquid-chromatography-coupled mass spectrometry (LC–MS)

[18] = bacteroides intestinalis, 12 h, 2 µM
Description: The drug is tested on Bacteroides intestinalis strain: DSM17393 for biotransformation. The drug concentrations were measured before and after a 12-h incubation by liquid-chromatography-coupled mass spectrometry (LC–MS)

[19] = bacteroides thetaiotaomicron, 12 h, 2 µM
Description: The drug is tested on Bacteroides thetaiotaomicron strain: VPI-5482 for biotransformation. The drug concentrations were measured before and after a 12-h incubation by liquid-chromatography-coupled mass spectrometry (LC–MS)

[20] = anaerostipes sp., 12 h, 2 µM
Description: The drug is tested on Anaerostipes sp. strain: fecal isolate for biotransformation. The drug concentrations were measured before and after a 12-h incubation by liquid-chromatography-coupled mass spectrometry (LC–MS)

Row | Structure (SMILES) | Bacterial Biotransformation [1] | Bacterial Biotransformation [2] | Bacterial Biotransformation [3] | Bacterial Biotransformation [4] | Bacterial Biotransformation [5] | Bacterial Biotransformation [6] | Bacterial Biotransformation [7] | Bacterial Biotransformation [8] | Bacterial Biotransformation [9] | Bacterial Biotransformation [10] | Bacterial Biotransformation [11] | Bacterial Biotransformation [12] | Bacterial Biotransformation [13] | Bacterial Biotransformation [14] | Bacterial Biotransformation [15] | Bacterial Biotransformation [16] | Bacterial Biotransformation [17] | Bacterial Biotransformation [18] | Bacterial Biotransformation [19] | Bacterial Biotransformation [20]
1 | CCOc1ccc2nc(S(N)(=O)=O)sc2c1 [ETHOXZOLAMIDE] | Compound metabolized | Compound metabolized | Compound metabolized | Compound metabolized | Compound metabolized | Compound NOT metabolized | Compound metabolized | Compound metabolized | Compound NOT metabolized | Compound metabolized | Compound metabolized | Compound metabolized | Compound metabolized | Compound metabolized | Compound metabolized | Compound metabolized | Compound metabolized | Compound metabolized | Compound metabolized | Compound metabolized
2 | N[C@@H](Cc1ccc(N(CCCl)CCCl)cc1)C(=O)O | Compound metabolized | Compound metabolized | Compound metabolized | Compound metabolized | Compound metabolized | Compound metabolized | Compound metabolized | Compound metabolized | Compound metabolized | Compound metabolized | Compound metabolized | Compound metabolized | Compound metabolized | Compound metabolized | Compound metabolized | Compound metabolized | Compound metabolized | Compound metabolized | Compound metabolized | Compound metabolized
3 | CC(C)C[C@H]1C(=O)N2CCC[C@H]2[C@]2(O)O[C@](NC(=O)[C@@H]3C=C4c5cccc6[nH]c(Br)c(c56)C[C@H]4N(C)C3)(C(C)C)C(=O)N12.CS(=O)(=O)O [BROMOCRIPTINE MESYLATE] | Compound metabolized | Compound metabolized | Compound metabolized | Compound metabolized | Compound metabolized | Compound metabolized | Compound metabolized | Compound metabolized | Compound metabolized | Compound metabolized | Compound metabolized | Compound metabolized | Compound metabolized | Compound metabolized | Compound metabolized | Compound metabolized | Compound metabolized | Compound metabolized | Compound metabolized | Compound metabolized
4 | COc1ccnc(C[S+]([O-])c2nc3ccc(OC(F)F)cc3[nH]2)c1OC (stereo not given) [PANTOPRAZOLE] | Compound metabolized | Compound metabolized | Compound metabolized | Compound metabolized | Compound metabolized | Compound metabolized | Compound metabolized | Compound metabolized | Compound metabolized | Compound metabolized | Compound metabolized | Compound metabolized | Compound metabolized | Compound metabolized | Compound metabolized | Compound metabolized | Compound metabolized | Compound metabolized | Compound metabolized | Compound metabolized
